In ChEMBL document CHEMBL1127981, “Novel ether derivatives of alkyl piperidines as potential sigma / 5HT2 antipsychotic agents” (Bioorg Med Chem Lett, 1994):

Legend:
[1] = target: Sigma non-opioid intracellular receptor 1 (Homo sapiens, UniProt Q99720); experiment: Binding affinity towards sigma receptor using [3H](+)-SKF-10047 as radioligand
[2] = target: Serotonin 2 (5-HT2) receptor (Homo sapiens, UniProt P41595+P28223+P28335); experiment: Binding affinity towards 5-HT2 receptor using [3H]ketanserin as radioligand; assay type: protein assay
[3] = In vivo potency was determined in anti-mescaline scratch assay(peroral administration); assay type: functional, organism-based
[4] = target: D(2) dopamine receptor (Homo sapiens, UniProt P14416); experiment: Binding affinity towards Dopamine receptor D2 using [3H]spiperone as radioligand
Chain of D(2) dopamine receptor (P14416 whole entry): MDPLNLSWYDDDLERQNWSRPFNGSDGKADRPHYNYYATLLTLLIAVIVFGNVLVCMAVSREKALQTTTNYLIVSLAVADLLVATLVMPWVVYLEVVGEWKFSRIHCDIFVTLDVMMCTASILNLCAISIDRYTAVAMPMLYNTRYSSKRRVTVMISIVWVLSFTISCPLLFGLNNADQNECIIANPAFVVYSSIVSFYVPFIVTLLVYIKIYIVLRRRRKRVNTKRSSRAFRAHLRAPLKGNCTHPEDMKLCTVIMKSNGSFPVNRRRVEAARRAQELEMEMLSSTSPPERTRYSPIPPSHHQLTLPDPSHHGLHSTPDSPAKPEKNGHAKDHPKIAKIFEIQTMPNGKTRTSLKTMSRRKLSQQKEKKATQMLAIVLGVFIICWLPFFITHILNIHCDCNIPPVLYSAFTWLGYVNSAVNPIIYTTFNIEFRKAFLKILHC

Chain of Sigma non-opioid intracellular receptor 1 (Q99720 whole entry): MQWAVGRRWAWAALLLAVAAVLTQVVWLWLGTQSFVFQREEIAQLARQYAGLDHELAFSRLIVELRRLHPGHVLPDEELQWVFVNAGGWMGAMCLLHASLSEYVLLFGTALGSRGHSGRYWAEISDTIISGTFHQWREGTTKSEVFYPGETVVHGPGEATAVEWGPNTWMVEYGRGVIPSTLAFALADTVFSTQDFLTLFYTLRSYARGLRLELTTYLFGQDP

**Q.** For `c1ccc(CCCOCC2CCN(Cc3ccccc3)CC2)cc1`, which Ki [1] is on record?
**A.** Its Ki is 27 nM.

**Q.** And the Ki [2]?
**A.** Its Ki is 180 nM.

**Q.** And the ED50 [3]?
**A.** The ED50 was greater than 30 mg/kg.

**Q.** And the Ki [4]?
**A.** Its Ki is 554 nM.

**Q.** Which Ki [1] does the source give for `C(/C=C/c1ccccc1)=C\OCC1CCN(Cc2ccccc2)CC1` here?
**A.** Its Ki is 212 nM.

**Q.** What about the Ki [2] of the same molecule?
**A.** Its Ki is 547 nM.

**Q.** And the Ki [4]?
**A.** The Ki was greater than 10000 nM.

**Q.** Which Ki [1] does the source give for `C(=C/c1ccccc1)/COCC1CCN(Cc2ccccc2)CC1` here?
**A.** Its Ki is 90 nM.

**Q.** And the Ki [2]?
**A.** Its Ki is greater than 10000 nM.

**Q.** And the Ki [4]?
**A.** The Ki was greater than 10000 nM.

**Q.** With `Fc1ccc(CCN2CCC(CCOCC#Cc3ccccc3)CC2)cc1` as the molecule, how does the Ki [1] read?
**A.** Its Ki is 18 nM.

**Q.** What about the Ki [2] of the same molecule?
**A.** The Ki was 85 nM.

**Q.** What about the ED50 [3] of the same molecule?
**A.** The ED50 was 3.6 mg/kg.

**Q.** And the Ki [4]?
**A.** The Ki was 1840 nM.

**Q.** With `C(#Cc1ccccc1)COCCC1CCN(CC2CC2)CC1` as the molecule, how does the Ki [1] read?
**A.** Its Ki is 1 nM.

**Q.** And the Ki [2]?
**A.** The Ki was 947 nM.

**Q.** And the ED50 [3]?
**A.** The ED50 was greater than 10 mg/kg.

**Q.** And the Ki [4]?
**A.** Its Ki is greater than 10000 nM.

**Q.** With `C(COCC1CCN(Cc2ccccc2)CC1)=C(c1ccccc1)c1ccccc1` as the molecule, how does the Ki [1] read?
**A.** Its Ki is 22 nM.

**Q.** And the Ki [2]?
**A.** The Ki was 29 nM.

**Q.** What about the ED50 [3] of the same molecule?
**A.** The ED50 was greater than 30 mg/kg.

**Q.** What about the Ki [4] of the same molecule?
**A.** Its Ki is 620 nM.

**Q.** Which Ki [1] does the source give for `C(=C\c1ccccc1)/COCC1CCN(CCCc2ccccc2)CC1` here?
**A.** The Ki was 18 nM.

**Q.** What about the Ki [2] of the same molecule?
**A.** Its Ki is 283 nM.

**Q.** And the ED50 [3]?
**A.** Its ED50 is 9 mg/kg.

**Q.** What about the Ki [4] of the same molecule?
**A.** The Ki was 948 nM.

**Q.** Which results are given for `C(=C\c1ccccc1)/COCC1CCN(Cc2ccccc2)CC1`?
**A.** Ki [1]: 7 nM; Ki [2]: 44 nM; ED50 [3]: 6 mg/kg; Ki [4]: > 10000 nM

**Q.** Which results are given for `C(#Cc1ccccc1)COC1CCN(CCc2ccccc2)CC1`?
**A.** Ki [1]: 4 nM; Ki [2]: 72 nM; ED50 [3]: > 10 mg/kg; Ki [4]: 1360 nM

**Q.** Which results are given for `C(#Cc1ccccc1)COCCC1CCN(CCc2ccccc2)CC1`?
**A.** Ki [1]: 7 nM; Ki [2]: 21 nM; ED50 [3]: 4.1 mg/kg; Ki [4]: 131 nM

**Q.** Which results are given for `C/C=C/CN1CCC(COC/C=C/c2ccccc2)CC1`?
**A.** Ki [1]: 8 nM; Ki [2]: 650 nM; ED50 [3]: > 30 mg/kg; Ki [4]: > 10000 nM

**Q.** For `FC(F)(F)c1ccc(/C=C/COCC2CCN(Cc3ccccc3)CC2)cc1`, which Ki [1] is on record?
**A.** Its Ki is 28 nM.

**Q.** What about the Ki [2] of the same molecule?
**A.** Its Ki is 324 nM.

**Q.** What about the ED50 [3] of the same molecule?
**A.** Its ED50 is greater than 10 mg/kg.

**Q.** And the Ki [4]?
**A.** The Ki was 4320 nM.

**Q.** Which Ki [1] does the source give for `C(=C\c1ccccc1)/COCC1CCN(Cc2cccc3ccccc23)CC1` here?
**A.** Its Ki is 8 nM.

**Q.** And the Ki [2]?
**A.** Its Ki is 284 nM.

**Q.** And the ED50 [3]?
**A.** Its ED50 is greater than 10 mg/kg.

**Q.** What about the Ki [4] of the same molecule?
**A.** The Ki was greater than 10000 nM.

**Q.** For `C(=C\c1ccccc1)/COCC1CCN(CC2CC2)CC1`, which Ki [1] is on record?
**A.** The Ki was 5 nM.

**Q.** What about the Ki [2] of the same molecule?
**A.** The Ki was 1847 nM.

**Q.** What about the ED50 [3] of the same molecule?
**A.** The ED50 was greater than 30 mg/kg.

**Q.** And the Ki [4]?
**A.** Its Ki is greater than 10000 nM.

**Q.** Which results are given for `C(#Cc1ccccc1)COCC1CCN(Cc2ccccc2)CC1`?
**A.** Ki [1]: 4 nM; Ki [2]: 254 nM; ED50 [3]: > 30 mg/kg; Ki [4]: > 10000 nM

**Q.** Which results are given for `Fc1ccc(/C=C/COCC2CCN(Cc3ccccc3)CC2)cc1`?
**A.** Ki [1]: 12 nM; Ki [2]: 31 nM; ED50 [3]: 8 mg/kg; Ki [4]: 2180 nM

**Q.** Which results are given for `Fc1ccc(C#CCOCCC2CCN(CCc3ccccc3)CC2)cc1`?
**A.** Ki [1]: 2 nM; Ki [2]: 81 nM; ED50 [3]: > 10 mg/kg; Ki [4]: 1060 nM

**Q.** Which Ki [1] does the source give for `C(=C\c1ccccc1)/COCC1CCN(CCc2ccccc2)CC1` here?
**A.** The Ki was 5 nM.

**Q.** And the Ki [2]?
**A.** Its Ki is 250 nM.

**Q.** What about the ED50 [3] of the same molecule?
**A.** Its ED50 is greater than 5 mg/kg.

**Q.** And the Ki [4]?
**A.** The Ki was 241 nM.
